In patent publication US20260217863A1, “ANTIBODY OR PEPTIDE BINDING SPECIFICALLY TO RNASE A, IMMUNOASSAY DEVICE AND METHOD FOR DETECTING RNASE A, AND METHOD FOR COLLECTING RNASE A” (UIF (University Industry Foundation), Yonsei University, priority 2022, published 2026):
Where no end group is shown, it is not given here.

Biological target: T1, RNase A (Bos taurus, UniProt P61823)
T1 sequence (P61823 27-150): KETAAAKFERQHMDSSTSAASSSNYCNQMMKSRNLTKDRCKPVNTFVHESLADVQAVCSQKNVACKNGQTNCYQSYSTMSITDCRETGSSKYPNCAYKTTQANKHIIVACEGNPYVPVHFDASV
Assay: cCMP hydrolysis assay of RNase A inhibition (absorbance 286 nm)
Type: biochemical, bovine
Parameters: Ribonuclease A (Type II-A) from bovine pancreas; purchased Sigma-Aldrich Korea; host or cells: bovine pancreas
Details: inhibitor 0.1 nM to 1 μM, linear regression
Experimental: The analysis of RNase A activity inhibition based on 2′,3′-cyclic CMP (cCMP) was performed by measuring the absorbance of cCMP at a wavelength of 286 nm. A mixture was prepared by combining Tris-acetate buffer (500 mM, pH=6.5, 200 μL), EDTA (5 mM, 200 μL), 2′,3′-cCMP (10 mM, 100 μL), RNase A (10 μg/mL, 100 μL), Fv variant (or synthetic peptides in the concentration range of 0.1 nM-1 μM), and DW (filled up to 1000 μL). The absorbance at 286 nm was measured using a Lamda35 UV-VIS spectrophotometer (Perkin-Elmer, MA, USA). The reaction was initiated by adding RNase A to the mixture, and the absorbance was measured every 3 minutes for a total of 30 minutes.
RNase A is known to degrade RNA by cleaving the phosphodiester bonds between nucleotides. The cleavage of the phosphodiester bonds occurs through a two-step reaction: (1) the formation of a […] and (2) the subsequent degradation of a 2′,3′-cyclic phosphate intermediate. […] Specifically, it was utilized that the absorbance at 286 nm quantitatively increases as 3′-CMP increases due to the hydrolysis of cCMP, as shown in FIG. 13. […] The inhibition curves of the Fv antibodies were plotted linearly, and the IC50 values were calculated by linear regression, as shown in FIG. 15. […]
The analysis of RNase A activity inhibition based on 2′,3′-cyclic CMP (cCMP) was performed by measuring the absorbance of cCMP at a wavelength of 286 nm. […] The absorbance at 286 nm was measured using a Lamda35 UV-VIS spectrophotometer (Perkin-Elmer, MA, USA). The reaction was initiated by adding RNase A to the mixture, and the absorbance was measured every 3 minutes for a total of 30 minutes.
RNase A is known to degrade RNA by cleaving the phosphodiester bonds between nucleotides. […] Specifically, it was utilized that the absorbance at 286 nm quantitatively increases as 3′-CMP increases due to the hydrolysis of cCMP, as shown in FIG. 13. […] The inhibition curves of the Fv antibodies were plotted linearly, and the IC50 values were calculated by linear regression, as shown in FIG. 15.

Sequence | IC50 [µM]
CGPDSDVMTDF [Peptide-1] | 0.607
DGTAKKSRKDD [Peptide-3] | 0.356
YGPVGRVKRDD [Peptide-2] | 0.373
